This experiment concerns the target T1, gamma-secretase (Homo sapiens, UniProt P49768).
T1 construct: The assay used a partially purified extract of IMR-32 cell membranes as the gamma-secretase enzyme preparation; endogenous in cells; host or cells: IMR-32 cell membranes (partially purified extract)
In words: Gamma-secretase APP enzyme assay (MBP-C125 Swe cleavage at Aβ40 site, sandwich ELISA). The experiment is classed as biochemical. The conditions noted are these: IMR-32 cell membrane extract as enzyme; MBP-C125swe substrate; 2 h at 37° C; read-out: γAPP. An excerpt: The gamma-secretase APP enzyme assay was designed to measure the specific proteolytic cleavage of an APP substrate (MBP-C125 Swe fusion protein) at the Aβ40 site. The assay used a partially purified extract of IMR-32 cell membranes as the gamma-secretase enzyme preparation and a recombinant fusion protein containing the C-terminal 125 amino acids of the Swedish variant of the APP (MBP-C125swe) as the substrate. This assay involved two steps beginning with the enzymatic reaction generating a cleavage product that was captured with an immobilized antibody specific for the neo-epitope Aβ40 site. The captured cleavage product was then detected in a sandwich ELISA assay with a biotinylated reporter antibody that is specific to Aβ (17-28). Streptavidin-linked alkaline phosphatase was then added that would generate a fluorescent signal proportional to the amount of cleavage product. This assay was used to discover small molecule inhibitors of gamma-secretase.
Briefly, a 149 mg/ml solution of BIGCHAP detergent was made with water at 42° C. and then rotated for 30 minutes at the same temperature. This warmed solution of BigCHAPS(N,N-Bis(3-D-gluconamidopropyl)cholamide) detergent was used to dissolve Brain Extract Type-V (lipid containing a minimum of 40% phosphatidylethanolamine) from Sigma (St. Louis, Mo.) to a concentration of 8 mg/ml. This solution containing BigCHAPS and lipid at 8 mg/ml is then diluted to 0.53 mg/ml lipid with a pre-warmed solution of Hepes and sodium chloride. This final solution containing Hepes buffer, sodium chloride, BigCHAPS detergent and lipid is used to create working solutions of both gamma-secretase (25 Units) and the MBP-C125 substrate (0.05 mg/ml).
Gamma-secretase was then added to a 96-well micro-titre plate and then incubated with various concentrations of inhibitor for 30 minutes at 37° C. MBPC125 substrate was then added to initiate the reaction that would run for two hours at 37° C. The reaction was quenched with the addition of SDS to a final concentration of 0.1% and then 100 μl of the reaction mixture was transferred to a capture ELISA plate and incubated overnight at 4° C. Detection of the cleavage product was performed using a standard sandwich ELISA assay and quantified using a six point standard curve.

Data on 22 molecules can be found in US7732609B2, “5-(arylsulfonyl)-pyrazolopiperidines” (Elan Pharmaceuticals, Inc., priority 2005, dated 2010).

Regarding `O=S(=O)(c1ccc(Cl)cc1)N1Cc2cccnc2CC1c1ccc(Cl)cc1` (stereo not shown) [7-(4-chlorophenyl)-6-(4-chlorophenylsulfonyl)-5,6,7,8-tetrahydro-1,6-naphthyridine], the IC50 is 0.15 to 0.3 µM.

Take `CC[C@@H]1c2c[nH]nc2C[C@H](c2ccc(Cl)cc2)N1S(=O)(=O)c1ccc(Cl)cc1` [(4R,6R)-6-(4-chlorophenyl)-5-(4-chlorophenylsulfonyl)-4-ethyl-4,5,6,7-tetrahydro-1H-pyrazolo[4,3-c]pyridine]: the IC50 was < 0.05 µM.

Take `CC[C@H]1Cc2n[nH]cc2[C@@H](CC)N1S(=O)(=O)c1ccc(F)cc1` [(4R,6S)-4,6-diethyl-5-(4-fluorophenylsulfonyl)-4,5,6,7-tetrahydro-2H-pyrazolo[4,3-c]pyridine]: the IC50 was < 0.05 µM. Next, `CC[C@H]1Cc2[nH]ncc2[C@@H](CC)N1S(=O)(=O)c1ccccn1` [(4R,6S)-4,6-diethyl-5-(pyridin-2-ylsulfonyl)-4,5,6,7-tetrahydro-1H-pyrazolo[4,3-c]pyridine]: 0.05 to 0.15 µM. Then `CC[C@H]1Cc2n[nH]cc2[C@@H](c2ccc(Cl)cc2)N1S(=O)(=O)c1ccc(Cl)cc1` [(4R,6S)-4-(4-chlorophenyl)-5-(4-chlorophenylsulfonyl)-6-ethyl-4,5,6,7-tetrahydro-1H-pyrazolo[4,3-c]pyridine], with < 0.05 µM; and `CC[C@H]1Cc2n[nH]cc2[C@@H](CC)N1S(=O)(=O)c1ccc(Cl)cc1` [(4R,6S)-5-(4-chlorophenylsulfonyl)-4,6-diethyl-4,5,6,7-tetrahydro-1H-pyrazolo[4,3-c]pyridine], with < 0.05 µM; and `CC[C@@H]1c2cn[nH]c2C(=O)[C@H](CC)N1S(=O)(=O)c1ccc(Cl)cc1` [(4R,6S)-5-(4-chlorophenylsulfonyl)-4,6-diethyl-5,6-dihydro-1H-pyrazolo[4,3-c]pyridin-7(4H)-one], with < 0.05 µM. Then `C[C@@H]1c2cn[nH]c2C[C@H](C)N1S(=O)(=O)c1ccc(Cl)cc1` [(4R,6S)-5-(4-chlorophenylsulfonyl)-4,6-dimethyl-4,5,6,7-tetrahydro-1H-pyrazolo[4,3-c]pyridine], with < 0.05 µM; and `CC[C@@H]1c2cn[nH]c2/C(=N\O)[C@H](CC)N1S(=O)(=O)c1ccc(Cl)cc1` [(4R,6S,Z)-5-(4-chlorophenylsulfonyl)-4,6-diethyl-5,6-dihydro-1H-pyrazolo[4,3-c]pyridin-7(4H)-one oxime], with 0.05 to 0.15 µM. As to `CC[C@@H]1Cc2[nH]ncc2[C@H](CC)N1S(=O)(=O)c1ccc(Cl)cc1` [(4S,6R)-5-(4-chlorophenylsulfonyl)-4,6-diethyl-4,5,6,7-tetrahydro-1H-pyrazolo[4,3-c]pyridine], the IC50 lay in the range of 0.05 to 0.15 µM. Take `CC[C@@H]1C(=O)c2[nH]ncc2[C@H](CC)N1S(=O)(=O)c1ccc(Cl)cc1` [(4S,6R)-5-(4-chlorophenylsulfonyl)-4,6-diethyl-5,6-dihydro-1H-pyrazolo[4,3-c]pyridin-7(4H)-one]: the IC50 was 0.15 to 0.3 µM. For the molecule `C[C@H]1Cc2[nH]ncc2[C@H](C)N1S(=O)(=O)c1ccc(Cl)cc1` [(4S,6S)-5-(4-chlorophenylsulfonyl)-4,6-dimethyl-4,5,6,7-tetrahydro-1H-pyrazolo[4,3-c]pyridine], the IC50 was < 0.05 µM. Next, `O=S(=O)(c1ccc(Cl)cc1)N1Cc2cn[nH]c2CC1CO` (stereo not shown) [(5-(4-chlorophenylsulfonyl)-4,5,6,7-tetrahydro-1H-pyrazolo[4,3-c]pyridin-6-yl)methanol]: 0.15 to 0.3 µM; `CC[C@@H]1c2cn[nH]c2C[C@@H](COC(=O)N(C)C)N1S(=O)(=O)c1ccc(Cl)cc1` [((4R,6S)-5-(4-chlorophenylsulfonyl)-4-ethyl-4,5,6,7-tetrahydro-1H-pyrazolo[4,3-c]pyridin-6-yl)methyl dimethylcarbamate]: 0.15 to 0.3 µM; `O=S(=O)(c1ccc(Cl)cc1)N1[C@@H](CO)Cc2[nH]ncc2[C@H]1CO` [((4S,6R)-5-(4-chlorophenylsulfonyl)-4,5,6,7-tetrahydro-1H-pyrazolo[4,3-c]pyridine-4,6-diyl)dimethanol]: 0.15 to 0.3 µM. Regarding `CC[C@@H]1Cc2[nH]ncc2[C@@H](COC(=O)N(C)C)N1S(=O)(=O)c1ccc(Cl)cc1` [((4S,6R)-5-(4-chlorophenylsulfonyl)-6-ethyl-4,5,6,7-tetrahydro-1H-pyrazolo[4,3-c]pyridin-4-yl)methyl dimethylcarbamate], the IC50 was 0.15 to 0.3 µM. Next, `CC[C@H]1c2cn[nH]c2C[C@@H](COC(=O)N(C)C)N1S(=O)(=O)c1ccc(Cl)cc1` [((4S,6S)-5-(4-chlorophenylsulfonyl)-4-ethyl-4,5,6,7-tetrahydro-1H-pyrazolo[4,3-c]pyridin-6-yl)methyl dimethylcarbamate]: < 0.05 µM; `CC[C@H]1Cc2[nH]ncc2[C@@H](COC(=O)N(C)C)N1S(=O)(=O)c1ccc(Cl)cc1` [((4S,6S)-5-(4-chlorophenylsulfonyl)-6-ethyl-4,5,6,7-tetrahydro-1H-pyrazolo[4,3-c]pyridin-4-yl)methyl dimethylcarbamate]: 0.15 to 0.3 µM. As for `CN(C)C(=O)OC[C@@H]1c2cnn(C(=O)N(C)C)c2CCN1S(=O)(=O)c1ccc(Cl)cc1` [(S)-(5-(4-chlorophenylsulfonyl)-1-(dimethylcarbamoyl)-4,5,6,7-tetrahydro-1H-pyrazolo[4,3-c]pyridin-4-yl)methyl dimethylcarbamate], the IC50 fell in the range of 0.15 to 0.3 µM. Then `CN(C)C(=O)OC[C@@H]1c2cn[nH]c2CCN1S(=O)(=O)c1ccc(Cl)cc1` [(S)-(5-(4-chlorophenylsulfonyl)-4,5,6,7-tetrahydro-1H-pyrazolo[4,3-c]pyridin-4-yl)methyl dimethylcarbamate], with 0.15 to 0.3 µM; and `CCOC(=O)C1c2cn[nH]c2CC(CC)N1S(=O)(=O)c1ccc(Cl)cc1` (stereo not shown) [ethyl 5-(4-chlorophenylsulfonyl)-6-ethyl-4,5,6,7-tetrahydro-1H-pyrazolo[4,3-c]pyridine-4-carboxylate], with < 0.05 µM; and “(4S,6R)-diethyl 5-(4-chlorophenylsulfonyl)-4,5,6,7-tetrahydro-1H-pyrazolo[4,3-c]pyridine-4,6-dicarboxylate”, with 0.05 to 0.15 µM.
